The target in one assay is Adenosine A2A (Homo sapiens (Human), UniProt P29274). Description: A2A Tag-lite HTRF assay (Example C). The conditions noted are these: Tag-lite Adenosine A2A labeled cells, Red antagonist fluorescent ligand 12.5 nM, one-site competitive binding; read-out: A2A_Ki. As for the experimental part:
Example C. A2A Tag-Lite® HTRF Assay
Assays were conducted in black low volume 384-well polystyrene plates (Greiner 784076-25) in a final volume of 10 μL. Test compounds were first serially diluted in DMSO and 100 nl added to the plate wells before the addition of other reaction components. The final concentration of DMSO was 1%. Tag-lite® Adenosine A2A labeled cells (CisBio C1TT1A2A) were diluted 1:5 into Tag-lite buffer (CisBio LABMED) and spun 1200 g for 5 mins. The pellet was resuspended at a volume 10.4× the initial cell suspension volume in Tag-lite buffer, and Adenosine A2A Receptor Red antagonist fluorescent ligand (CisBio L0058RED) added at 12.5 nM final concentration. 10 ul of the cell and ligand mix was added to the assay wells and incubated at room temperature for 45 minutes before reading on a PHERAstar FS plate reader (BMG Labtech) with HTRF 337/620/665 optical module. Percent binding of the fluorescent ligand was calculated; where 100 nM of A2A antagonist control ZM 241385 (Tocris 1036) displaces the ligand 100% and 1% DMSO has 0% displacement. The % binding data versus the log of the inhibitor concentration was fitted to a one-site competitive binding model (GraphPad Prism version 7.02) where the ligand constant=12.5 nM and the ligand Kd=1.85 nM.
A general note: Time-resolved FRET reads energy transfer from a long-lived donor to a nearby acceptor.

For assay [1], the target named is human adenosine A2B receptor (Homo sapiens (Human), UniProt P29275). Description: Adenosine A2B receptor cyclic AMP GS assay (Example B). The settings on record: HEK-293 cells expressing human A2B, agonist NECA 12 nM, cAMP accumulation (FRET); read-out: A2B_cAMP_EC50. It counts as cell-based. The method, then:
Example B. Adenosine A2B Receptor Cyclic AMP GS Assay
Stably transfected HEK-293 cells expressing the human adenosine A2B receptor (Perkin Elmer) were maintained in MEM culture medium with 10% FBS and 100 μg/ml Geneticin (Life Technologies). 18 to 24 hours prior to assay, geneticin was removed from culture. The cisbio cAMP-GS Dynamic kit utilizing the FRET (Fluorescence Resonance Energy Transfer) technology was used to measure cAMP accumulation in the cells. Compounds of the present disclosure at an appropriate concentration were mixed with 10000 cells/well in white 96 well half area plates (Perkin Elmer) for 30 min at RT gently shaking. Agonist, NECA (R&D Technologies) at 12 nM was added to each well for 60 min at RT gently shaking. Detection reagents, d2-labeled cAMP (acceptor) and anti-cAMP cryptate (donor) were added to each well for 60 min at RT gently shaking. Plates were read on Pherastar (BMG Labtech), fluorescence ratio 665/620 was calculated and EC50 determination was performed by fitting the curve of percent of control versus the log of the compound concentration using GraphPad Prism.
In general terms: Cyclic AMP is a second messenger, typically raised through Gs and lowered through Gi signalling.

The structures appear in SMILES notation.

Chain of human adenosine A2B receptor (P29275 whole entry): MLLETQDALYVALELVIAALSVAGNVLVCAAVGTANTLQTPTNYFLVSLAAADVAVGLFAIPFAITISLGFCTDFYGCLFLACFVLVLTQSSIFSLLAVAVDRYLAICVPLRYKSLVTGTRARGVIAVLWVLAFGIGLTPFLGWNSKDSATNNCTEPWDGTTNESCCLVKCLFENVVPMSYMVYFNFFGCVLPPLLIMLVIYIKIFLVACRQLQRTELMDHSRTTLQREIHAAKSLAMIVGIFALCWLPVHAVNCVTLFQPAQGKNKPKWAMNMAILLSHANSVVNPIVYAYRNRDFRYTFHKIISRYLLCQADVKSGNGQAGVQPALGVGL
Chain of Adenosine A2A (P29274 whole entry): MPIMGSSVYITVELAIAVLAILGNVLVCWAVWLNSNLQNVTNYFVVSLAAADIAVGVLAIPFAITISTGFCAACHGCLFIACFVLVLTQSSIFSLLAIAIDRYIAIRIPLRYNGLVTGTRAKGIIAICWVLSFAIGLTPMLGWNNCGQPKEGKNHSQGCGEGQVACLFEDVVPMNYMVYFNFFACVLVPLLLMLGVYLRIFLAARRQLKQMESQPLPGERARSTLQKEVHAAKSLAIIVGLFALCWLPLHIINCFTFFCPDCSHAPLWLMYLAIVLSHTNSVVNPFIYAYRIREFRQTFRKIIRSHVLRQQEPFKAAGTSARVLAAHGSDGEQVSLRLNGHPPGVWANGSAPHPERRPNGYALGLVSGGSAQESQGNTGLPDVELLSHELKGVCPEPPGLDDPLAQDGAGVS

In the case of `Cc1cccnc1COc1nc2c(-c3ccc(=O)n(C)n3)c(-c3cccc(C#N)c3)nc(N)n2n1` [Example 19, 3-(5-amino-8-(1-methyl-6-oxo-1,6-dihydropyridazin-3-yl)-2-((3-methylpyridin-2-yl)methoxy)-[1,2,4]triazolo[1,5-c]pyrimidin-7-yl)benzonitrile], the Ki on Adenosine A2A was at most 10 nM. In assay [1], the EC50 was at most 10 nM.
`Cc1cnccc1-c1c(-c2cccc(C#N)c2)nc(N)n2nc(OCc3ncccc3C)nc12` [Example 20, 3-(5-amino-2-((3-methylpyridin-2-yl)methoxy)-8-(3-methylpyridin-4-yl)-[1,2,4]triazolo[1,5-c]pyrimidin-7-yl)benzonitrile]: the Ki at Adenosine A2A was at most 10 nM. Moreover, in assay [1], the EC50 is at most 10 nM.
With `Cc1cc(-c2c(-c3cccc(C#N)c3)nc(N)n3nc(OCc4ncccc4C)nc23)cc(C)n1` [Example 21, 3-(5-amino-8-(2,6-dimethylpyridin-4-yl)-2-((3-methylpyridin-2-yl)methoxy)-[1,2,4]triazolo[1,5-c]pyrimidin-7-yl)benzonitrile], the Ki on Adenosine A2A is at most 10 nM. Further, the EC50 in assay [1] lay within 10 to 100 nM.
For the compound `CCn1cc(-c2c(-c3cccc(C#N)c3)nc(N)n3nc(OCc4ncccc4C)nc23)ccc1=O` [Example 22, 3-(5-amino-8-(1-ethyl-6-oxo-1,6-dihydropyridin-3-yl)-2-((3-methylpyridin-2-yl)methoxy)-[1,2,4]triazolo[1,5-c]pyrimidin-7-yl)benzonitrile], the Ki on Adenosine A2A is at most 10 nM. Moreover, in assay [1], the EC50 lay within 10 to 100 nM.
The corresponding values for `Cc1cccnc1CNc1nc2c(-c3ccc(=O)n(C)c3)c(-c3cccc(C#N)c3F)nc(N)n2n1` [Example 23, 3-(5-amino-8-(1-methyl-6-oxo-1,6-dihydropyridin-3-yl)-2-(((3-methylpyridin-2-yl)methyl)amino)-[1,2,4]triazolo[1,5-c]pyrimidin-7-yl)-2-fluorobenzonitrile] are at most 10 nM and 10 to 100 nM.
The corresponding values for `CCn1cc(-c2c(-c3cccc(C#N)c3F)nc(N)n3nc(NCc4ncccc4C)nc23)ccc1=O` [Example 24, 3-(5-amino-8-(1-ethyl-6-oxo-1,6-dihydropyridin-3-yl)-2-(((3-methylpyridin-2-yl)methyl)amino)-[1,2,4]triazolo[1,5-c]pyrimidin-7-yl)-2-fluorobenzonitrile] are at most 10 nM and 10 to 100 nM.
The corresponding values for `Cc1cccnc1CNc1nc2c(-c3ccc(=O)n(C)n3)c(-c3cccc(C#N)c3F)nc(N)n2n1` [Example 25, 3-(5-amino-8-(1-methyl-6-oxo-1,6-dihydropyridazin-3-yl)-2-(((3-methylpyridin-2-yl)methyl)amino)-[1,2,4]triazolo[1,5-c]pyrimidin-7-yl)-2-fluorobenzonitrile] are at most 10 nM and at most 10 nM.
As for `COc1cc(-c2c(-c3cccc(C#N)c3F)nc(N)n3nc(NCc4ncccc4C)nc23)cc(C)n1` [Example 26, 3-(5-amino-8-(2-methoxy-6-methylpyridin-4-yl)-2-(((3-methylpyridin-2-yl)methyl)amino)-[1,2,4]triazolo[1,5-c]pyrimidin-7-yl)-2-fluorobenzonitrile], the Ki on Adenosine A2A was at most 10 nM. Besides, the EC50 in assay [1] was 10 to 100 nM.
In the same order, the values of `Cn1nc(-c2c(-c3cccc(C#N)c3)nc(N)n3nc(Cc4ccccn4)nc23)ccc1=O` [Example 27, 3-(5-amino-8-(1-methyl-6-oxo-1,6-dihydropyridazin-3-yl)-2-(pyridin-2-ylmethyl)-[1,2,4]triazolo[1,5-c]pyrimidin-7-yl)benzonitrile] are at most 10 nM and at most 10 nM.
The corresponding values for `N#Cc1cccc(-c2nc(N)n3nc(OCc4ncccc4F)nc3c2-c2ccncn2)c1` [Example 28, 3-(5-amino-2-((3-fluoropyridin-2-yl)methoxy)-8-(pyrimidin-4-yl)-[1,2,4]triazolo[1,5-c]pyrimidin-7-yl)benzonitrile] are at most 10 nM and at most 10 nM.
In the same order, the values of `Cn1cc(-c2c(-c3cccc(C#N)c3)nc(N)n3nc(OCc4ncccc4F)nc23)ccc1=O` [Example 29, 3-(5-amino-2-((3-fluoropyridin-2-yl)methoxy)-8-(1-methyl-6-oxo-1,6-dihydropyridin-3-yl)-[1,2,4]triazolo[1,5-c]pyrimidin-7-yl)benzonitrile] are at most 10 nM and at most 10 nM.
On to `Cn1nc(-c2c(-c3cccc(C#N)c3)nc(N)n3nc(OCc4ncccc4F)nc23)ccc1=O` [Example 30, 3-(5-amino-2-((3-fluoropyridin-2-yl)methoxy)-8-(1-methyl-6-oxo-1,6-dihydropyridazin-3-yl)-[1,2,4]triazolo[1,5-c]pyrimidin-7-yl)benzonitrile], for which the Ki at Adenosine A2A was at most 10 nM. For the same compound, the EC50 in assay [1] is at most 10 nM.
As for `Cc1cc(-c2c(-c3cccc(C#N)c3)nc(N)n3nc(OCc4ncccc4F)nc23)cc(C)n1` [Example 32, 3-(5-amino-8-(2,6-dimethylpyridin-4-yl)-2-((3-fluoropyridin-2-yl)methoxy)-[1,2,4]triazolo[1,5-c]pyrimidin-7-yl)benzonitrile], at Adenosine A2A, the Ki is at most 10 nM. Further, in assay [1], the EC50 fell in the range of 10 to 100 nM.
With `COc1cc(-c2c(-c3cccc(C#N)c3)nc(N)n3nc(OCc4ncccc4F)nc23)cc(C)n1` [Example 33, 3-(5-amino-2-((3-fluoropyridin-2-yl)methoxy)-8-(2-methoxy-6-methylpyridin-4-yl)-[1,2,4]triazolo[1,5-c]pyrimidin-7-yl)benzonitrile], the Ki on Adenosine A2A was at most 10 nM. The EC50 in assay [1] was at most 10 nM.
Turning to `N#Cc1cccc(-c2nc(N)n3nc(Nc4ccccn4)nc3c2-c2ccncn2)c1` [Example 34, 3-(5-amino-2-(pyridin-2-ylamino)-8-(pyrimidin-4-yl)-[1,2,4]triazolo[1,5-c]pyrimidin-7-yl)benzonitrile], the Ki on Adenosine A2A was at most 10 nM. Moreover, the EC50 in assay [1] was at most 10 nM.
As to `Cc1cccc(Nc2nc3c(-c4ccncn4)c(-c4cccc(C#N)c4)nc(N)n3n2)n1` [Example 40, 3-(5-amino-2-((6-methylpyridin-2-yl)amino)-8-(pyrimidin-4-yl)-[1,2,4]triazolo[1,5-c]pyrimidin-7-yl)benzonitrile], the Ki on Adenosine A2A was at most 10 nM. The EC50 in assay [1] is at most 10 nM.
With `N#Cc1cccc(-c2nc(N)n3nc(COc4ccccn4)nc3c2-c2ccncn2)c1` [Example 41, 3-(5-amino-2-((pyridin-2-yloxy)methyl)-8-(pyrimidin-4-yl)-[1,2,4]triazolo[1,5-c]pyrimidin-7-yl)benzonitrile], at Adenosine A2A, the Ki is at most 10 nM. Moreover, the EC50 in assay [1] was at most 10 nM.
For the compound `N#Cc1cccc(-c2nc(N)n3nc(COc4ncccc4C#N)nc3c2-c2ccncn2)c1` [Example 42, 2-((5-amino-7-(3-cyanophenyl)-8-(pyrimidin-4-yl)-[1,2,4]triazolo[1,5-c]pyrimidin-2-yl)methoxy)nicotinonitrile], at Adenosine A2A, the Ki was at most 10 nM. For the same compound, in assay [1], the EC50 was at most 10 nM.
In the case of `Cn1cc(-c2c(-c3cccc(C#N)c3)nc(N)n3nc(COc4ncccc4C#N)nc23)ccc1=O` [Example 43, 2-((5-amino-7-(3-cyanophenyl)-8-(1-methyl-6-oxo-1,6-dihydropyridin-3-yl)-[1,2,4]triazolo[1,5-c]pyrimidin-2-yl)methoxy)nicotinonitrile], the Ki on Adenosine A2A is at most 10 nM. For the same compound, the EC50 in assay [1] was at most 10 nM.
With `Cn1nc(-c2c(-c3cccc(C#N)c3)nc(N)n3nc(COc4ncccc4C#N)nc23)ccc1=O` [Example 44, 2-((5-amino-7-(3-cyanophenyl)-8-(1-methyl-6-oxo-1,6-dihydropyridazin-3-yl)-[1,2,4]triazolo[1,5-c]pyrimidin-2-yl)methoxy)nicotinonitrile], at Adenosine A2A, the Ki was at most 10 nM. Also, the EC50 in assay [1] lay within 10 to 100 nM.
In the same order, the values of `Cc1cc(-c2c(-c3cccc(C#N)c3)nc(N)n3nc(COc4ncccc4C#N)nc23)cc(C)n1` [Example 46, 2-((5-amino-7-(3-cyanophenyl)-8-(2,6-dimethylpyridin-4-yl)-[1,2,4]triazolo[1,5-c]pyrimidin-2-yl)methoxy)nicotinonitrile] are at most 10 nM and 100 to 1000 nM.
In the same order, the values of `COc1cc(-c2c(-c3cccc(C#N)c3)nc(N)n3nc(COc4ncccc4C#N)nc23)cc(C)n1` [Example 47, 2-((5-amino-7-(3-cyanophenyl)-8-(2-methoxy-6-methylpyridin-4-yl)-[1,2,4]triazolo[1,5-c]pyrimidin-2-yl)methoxy)nicotinonitrile] are at most 10 nM and 10 to 100 nM.

The values above are taken from patent US20250034153A1, “TRIAZOLOPYRIMIDINES AS A2A / A2B INHIBITORS” (Incyte Corporation, priority 2019, published 2025).
